Experimental data published in ChEMBL document CHEMBL1135072, “Substituted N-(3,5-dichlorobenzenesulfonyl)-L-prolyl-phenylalanine analogues as potent VLA-4 antagonists” (Bioorg Med Chem Lett, 2002).

Columns and labels:
[1] = target: Integrin alpha-4/beta-1 (Homo sapiens, UniProt P05556+P13612); assay: Inhibitory activity against very late antigen-4 (VLA-4) using VCAM-Ig ligand.; assay type: protein-complex assay
[2] = target: T1, Integrin alpha-4/beta-7 (Homo sapiens) (UniProt P13612+P26010); assay: Inhibition of MadCAM-Ig binding to alpha-4 beta-7 integrin at 0.1 uM; assay type: protein-complex assay
[3] = in vivo; conditions: Sprague-Dawley, rat, plasma
[4] = Plasma clearance was reported in Sprague-Dawley rat
[5] = Volume of distribution was reported in Sprague-Dawley rat; conditions: in vivo
[6] = target: T1, Integrin alpha-4/beta-7 (Homo sapiens); assay: Inhibition of MadCAM-Ig binding to alpha-4 beta-7 integrin at 20 uM; assay type: protein-complex assay
[7] = organism: Rattus norvegicus; assay: The plasma concentration versus time curve (AUC) was determined; conditions: in vivo
[8] = target: T2, Integrin alpha-4/beta-7 (Homo sapiens, UniProt P13612+P26010); assay: Inhibition of MadCAM-Ig binding to alpha-4 beta-7 integrin; assay type: protein-complex assay
T2 sequence (P13612 whole entry): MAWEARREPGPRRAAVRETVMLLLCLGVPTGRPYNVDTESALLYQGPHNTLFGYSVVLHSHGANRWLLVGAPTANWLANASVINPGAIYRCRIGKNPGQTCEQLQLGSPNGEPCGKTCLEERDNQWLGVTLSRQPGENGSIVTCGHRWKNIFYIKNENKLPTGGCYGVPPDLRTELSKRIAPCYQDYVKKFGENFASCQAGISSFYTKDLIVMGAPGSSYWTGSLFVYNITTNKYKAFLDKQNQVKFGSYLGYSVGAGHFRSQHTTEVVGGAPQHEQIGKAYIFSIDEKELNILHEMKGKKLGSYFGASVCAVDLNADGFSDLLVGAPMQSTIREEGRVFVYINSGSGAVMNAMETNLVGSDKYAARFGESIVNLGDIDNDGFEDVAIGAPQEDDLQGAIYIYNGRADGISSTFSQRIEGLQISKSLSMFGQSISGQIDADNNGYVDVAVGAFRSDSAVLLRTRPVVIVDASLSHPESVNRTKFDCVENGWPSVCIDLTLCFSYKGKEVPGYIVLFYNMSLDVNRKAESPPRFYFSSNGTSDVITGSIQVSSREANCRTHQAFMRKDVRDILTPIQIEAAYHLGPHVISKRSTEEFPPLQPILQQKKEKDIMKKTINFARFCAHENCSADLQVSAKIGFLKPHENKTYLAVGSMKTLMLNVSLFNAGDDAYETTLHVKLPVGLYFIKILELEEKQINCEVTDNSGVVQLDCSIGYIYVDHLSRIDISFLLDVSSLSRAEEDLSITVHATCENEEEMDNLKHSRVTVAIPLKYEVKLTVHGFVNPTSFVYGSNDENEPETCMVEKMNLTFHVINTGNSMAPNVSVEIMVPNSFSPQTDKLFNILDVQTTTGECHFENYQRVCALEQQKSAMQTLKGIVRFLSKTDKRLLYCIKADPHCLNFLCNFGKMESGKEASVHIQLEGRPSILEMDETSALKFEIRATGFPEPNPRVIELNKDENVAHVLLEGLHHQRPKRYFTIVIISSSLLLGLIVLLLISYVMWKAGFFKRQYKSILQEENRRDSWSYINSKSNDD
T2 sequence (P26010 whole entry): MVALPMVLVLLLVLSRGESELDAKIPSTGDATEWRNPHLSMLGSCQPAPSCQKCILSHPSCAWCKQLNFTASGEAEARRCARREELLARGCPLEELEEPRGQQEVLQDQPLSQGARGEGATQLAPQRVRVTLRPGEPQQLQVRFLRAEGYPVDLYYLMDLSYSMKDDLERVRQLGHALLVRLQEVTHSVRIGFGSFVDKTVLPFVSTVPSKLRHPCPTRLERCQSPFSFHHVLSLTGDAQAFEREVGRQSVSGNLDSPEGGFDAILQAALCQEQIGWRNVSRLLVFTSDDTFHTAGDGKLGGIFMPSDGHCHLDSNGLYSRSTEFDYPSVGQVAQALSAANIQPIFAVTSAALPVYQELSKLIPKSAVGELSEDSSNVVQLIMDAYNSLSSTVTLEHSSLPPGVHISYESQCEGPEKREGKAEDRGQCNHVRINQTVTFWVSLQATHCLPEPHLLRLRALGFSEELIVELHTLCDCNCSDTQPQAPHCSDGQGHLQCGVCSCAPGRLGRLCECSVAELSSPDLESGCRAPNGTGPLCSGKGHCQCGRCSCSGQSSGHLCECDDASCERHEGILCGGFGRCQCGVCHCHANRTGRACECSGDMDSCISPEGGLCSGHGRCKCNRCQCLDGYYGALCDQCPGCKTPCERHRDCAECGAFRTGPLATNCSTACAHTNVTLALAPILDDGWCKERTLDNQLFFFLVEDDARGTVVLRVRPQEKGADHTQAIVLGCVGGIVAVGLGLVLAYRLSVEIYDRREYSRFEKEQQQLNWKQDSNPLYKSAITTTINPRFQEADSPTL

Integrin alpha-4/beta-1, sequence (P05556 whole entry, one chain of several): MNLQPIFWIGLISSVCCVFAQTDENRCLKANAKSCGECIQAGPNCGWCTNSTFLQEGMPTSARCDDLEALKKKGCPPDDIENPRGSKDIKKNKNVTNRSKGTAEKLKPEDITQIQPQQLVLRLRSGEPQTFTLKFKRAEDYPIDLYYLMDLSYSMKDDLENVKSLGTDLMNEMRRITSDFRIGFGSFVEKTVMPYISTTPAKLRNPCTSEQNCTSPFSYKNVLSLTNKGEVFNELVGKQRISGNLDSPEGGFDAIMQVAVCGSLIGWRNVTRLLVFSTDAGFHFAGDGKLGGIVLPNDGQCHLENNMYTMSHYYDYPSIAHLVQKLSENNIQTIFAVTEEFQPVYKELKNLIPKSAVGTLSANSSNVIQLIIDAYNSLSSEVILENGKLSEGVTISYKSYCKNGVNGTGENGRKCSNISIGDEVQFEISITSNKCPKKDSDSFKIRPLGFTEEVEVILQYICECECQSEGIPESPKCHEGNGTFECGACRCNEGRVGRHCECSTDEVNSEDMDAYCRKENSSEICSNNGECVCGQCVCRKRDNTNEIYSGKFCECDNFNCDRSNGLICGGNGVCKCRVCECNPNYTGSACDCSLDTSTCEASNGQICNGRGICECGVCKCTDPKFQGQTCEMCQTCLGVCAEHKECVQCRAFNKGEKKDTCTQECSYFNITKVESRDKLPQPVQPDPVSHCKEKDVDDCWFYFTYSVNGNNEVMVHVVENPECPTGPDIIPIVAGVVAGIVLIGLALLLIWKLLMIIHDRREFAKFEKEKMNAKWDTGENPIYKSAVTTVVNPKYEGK

Row | Compound | IC50 [1] | other results
1 | O=C(O)[C@H](Cc1ccc(Br)cc1)NC(=O)[C@@H]1CCCN1S(=O)(=O)c1cc(Cl)cc(Cl)c1 | 0.92 nM | –
2 | CCc1ccc(C[C@H](NC(=O)[C@]2(C)CCCN2S(=O)(=O)c2cc(Cl)cc(Cl)c2)C(=O)O)cc1 | 1.88 nM | inhibition [2]: 2%
3 | C[C@@]1(C(=O)N[C@@H](Cc2cccc(F)c2)C(=O)O)CCCN1S(=O)(=O)c1cc(Cl)cc(Cl)c1 | 0.9 nM | inhibition [2]: < 5%
4 | COc1ccc(C[C@H](NC(=O)[C@]2(C)CCCN2S(=O)(=O)c2cc(Cl)cc(Cl)c2)C(=O)O)cc1 | 0.59 nM | inhibition [2]: 16%; half-life [3]: 36 min; clearance [4]: 47 mL/min/kg; Vd [5]: 1.4 L/kg
5 | O=C(O)[C@H](Cc1cc(F)cc(F)c1)NC(=O)[C@@H]1CCCN1S(=O)(=O)c1cc(Cl)cc(Cl)c1 | 1.1 nM | –
6 | O=C(O)[C@H](Cc1ccncc1)NC(=O)[C@@H]1CCCN1S(=O)(=O)c1cc(Cl)cc(Cl)c1 | 0.67 nM | inhibition [6]: 45%
7 | C[C@@]1(C(=O)N[C@@H](Cc2ccc(F)cc2)C(=O)O)CCCN1S(=O)(=O)c1cc(Cl)cc(Cl)c1 | 1.2 nM | inhibition [2]: < 5%; half-life [3]: 72 min; clearance [4]: 44 mL/min/kg; Vd [5]: 1.2 L/kg; plasma concentration [7]: ~ 1 nM
8 | C[C@@]1(C(=O)N[C@@H](Cc2ccc(I)cc2)C(=O)O)CCCN1S(=O)(=O)c1cc(Cl)cc(Cl)c1 | 4.77 nM | inhibition [6]: 58%
9 | C[C@@]1(C(=O)N[C@@H](Cc2ccc(C#N)cc2)C(=O)O)CCCN1S(=O)(=O)c1cc(Cl)cc(Cl)c1 | 1.6 nM | inhibition [2]: 29%
10 | O=C(O)[C@H](Cc1ccc(F)cc1)NC(=O)[C@@H]1CCCN1S(=O)(=O)c1cc(Cl)cc(Cl)c1 | 0.48 nM | –
11 | O=C(O)[C@H](Cc1cscn1)NC(=O)[C@@H]1CCCN1S(=O)(=O)c1cc(Cl)cc(Cl)c1 | 0.73 nM | IC50 [8]: 2350 nM
12 | C[C@@]1(C(=O)N[C@@H](Cc2cccs2)C(=O)O)CCCN1S(=O)(=O)c1cc(Cl)cc(Cl)c1 | 1.61 nM | inhibition [6]: 45%
13 | C[C@@]1(C(=O)N[C@@H](Cc2ccc(O)cc2)C(=O)O)CCCN1S(=O)(=O)c1cc(Cl)cc(Cl)c1 | 0.86 nM | –
14 | O=C(O)[C@H](Cc1ccc(F)c(F)c1)NC(=O)[C@@H]1CCCN1S(=O)(=O)c1cc(Cl)cc(Cl)c1 | 0.48 nM | –
15 | O=C(O)[C@H](Cc1ccccc1F)NC(=O)[C@@H]1CCCN1S(=O)(=O)c1cc(Cl)cc(Cl)c1 | 1.3 nM | –
16 | C[C@@]1(C(=O)N[C@@H](Cc2ccc(C(F)(F)F)cc2)C(=O)O)CCCN1S(=O)(=O)c1cc(Cl)cc(Cl)c1 | 3.9 nM | inhibition [2]: 25%
17 | C[C@@]1(C(=O)N[C@@H](Cc2ccccc2F)C(=O)O)CCCN1S(=O)(=O)c1cc(Cl)cc(Cl)c1 | 1.7 nM | inhibition [2]: < 5%
18 | O=C(O)[C@H](Cc1ccc(OC(F)(F)F)cc1)NC(=O)[C@@H]1CCCN1S(=O)(=O)c1cc(Cl)cc(Cl)c1 | 0.86 nM | –
19 | C[C@@]1(C(=O)N[C@@H](Cc2ccccc2Cl)C(=O)O)CCCN1S(=O)(=O)c1cc(Cl)cc(Cl)c1 | 1.8 nM | inhibition [2]: < 16%
20 | O=C(O)[C@H](Cc1cccc(F)c1)NC(=O)[C@@H]1CCCN1S(=O)(=O)c1cc(Cl)cc(Cl)c1 | 0.67 nM | –
21 | O=C(O)[C@H](Cc1ccc([N+](=O)[O-])cc1)NC(=O)[C@@H]1CCCN1S(=O)(=O)c1cc(Cl)cc(Cl)c1 | 0.3 nM | –

Row | Compound | IC50 [1] | other results
22 | O=C(O)[C@H](Cc1ccc(Cl)cc1)NC(=O)[C@@H]1CCCN1S(=O)(=O)c1cc(Cl)cc(Cl)c1 | 0.85 nM | –
23 | C[C@@]1(C(=O)N[C@@H](Cc2ccncc2)C(=O)O)CCCN1S(=O)(=O)c1cc(Cl)cc(Cl)c1 | 1.31 nM | inhibition [2]: 13%
24 | O=C(O)[C@H](Cc1cccs1)NC(=O)[C@@H]1CCCN1S(=O)(=O)c1cc(Cl)cc(Cl)c1 | 0.92 nM | IC50 [8]: 2850 nM
25 | C[C@@]1(C(=O)N[C@@H](Cc2cccc(Cl)c2)C(=O)O)CCCN1S(=O)(=O)c1cc(Cl)cc(Cl)c1 | 1.7 nM | inhibition [2]: < 16%
26 | C[C@@]1(C(=O)N[C@@H](Cc2ccc(Cl)cc2)C(=O)O)CCCN1S(=O)(=O)c1cc(Cl)cc(Cl)c1 | 2.3 nM | inhibition [2]: < 16%
27 | C[C@@]1(C(=O)N[C@@H](Cc2ccccc2)C(=O)O)CCCN1S(=O)(=O)c1cc(Cl)cc(Cl)c1 | 1 nM | IC50 [8]: 3550 nM
28 | C[C@@]1(C(=O)N[C@@H](Cc2ccc(OC(F)(F)F)cc2)C(=O)O)CCCN1S(=O)(=O)c1cc(Cl)cc(Cl)c1 | 3.8 nM | half-life [3]: 54 min; clearance [4]: 36 mL/min/kg; Vd [5]: 1.4 L/kg
29 | O=C(O)[C@H](Cc1ccc(I)cc1)NC(=O)[C@@H]1CCCN1S(=O)(=O)c1cc(Cl)cc(Cl)c1 | 0.33 nM | –
30 | O=C(O)[C@H](Cc1ccccc1Cl)NC(=O)[C@@H]1CCCN1S(=O)(=O)c1cc(Cl)cc(Cl)c1 | 0.99 nM | –
31 | CCc1ccc(C[C@H](NC(=O)[C@@H]2CCCN2S(=O)(=O)c2cc(Cl)cc(Cl)c2)C(=O)O)cc1 | 0.44 nM | –
32 | O=C(O)[C@H](Cc1cccc(C(F)(F)F)c1)NC(=O)[C@@H]1CCCN1S(=O)(=O)c1cc(Cl)cc(Cl)c1 | 3.2 nM | –
33 | O=C(O)[C@H](Cc1ccc(-c2ccccc2)cc1)NC(=O)[C@@H]1CCCN1S(=O)(=O)c1cc(Cl)cc(Cl)c1 | 0.65 nM | –
34 | C[C@]1(C(=O)N[C@H](Cc2ccccc2)C(=O)O)CCCN1S(=O)(=O)c1cc(Cl)cc(Cl)c1 | 28400 nM | –
35 | C[C@]1(C(=O)N[C@@H](Cc2ccccc2)C(=O)O)CCCN1S(=O)(=O)c1cc(Cl)cc(Cl)c1 | 2060 nM | –
36 | N#Cc1ccc(C[C@H](NC(=O)[C@@H]2CCCN2S(=O)(=O)c2cc(Cl)cc(Cl)c2)C(=O)O)cc1 | 0.79 nM | –
37 | O=C(O)[C@H](Cc1cccnc1)NC(=O)[C@@H]1CCCN1S(=O)(=O)c1cc(Cl)cc(Cl)c1 | 0.86 nM | IC50 [8]: 2100 nM
38 | CC(C)(C)Oc1ccc(C[C@H](NC(=O)[C@@H]2CCCN2S(=O)(=O)c2cc(Cl)cc(Cl)c2)C(=O)O)cc1 | 0.22 nM | –
39 | C[C@@]1(C(=O)N[C@H](Cc2ccccc2)C(=O)O)CCCN1S(=O)(=O)c1cc(Cl)cc(Cl)c1 | 152 nM | –
40 | O=C(O)[C@H](Cc1ccccn1)NC(=O)[C@@H]1CCCN1S(=O)(=O)c1cc(Cl)cc(Cl)c1 | 26.5 nM | –
41 | O=C(O)[C@H](Cc1cccc(Cl)c1)NC(=O)[C@@H]1CCCN1S(=O)(=O)c1cc(Cl)cc(Cl)c1 | 3.6 nM | –
